Source: patent US20030082511A1, “Identification of modulatory molecules using inducible promoters” (priority 2001, published 2003)

Legend:
[1] = molecular target: T1, mouse potassium voltage-gated channel KCNC1 (Mus musculus, UniProt P15388); assay: Membrane potential assay (Disbac5Me4/Disbac3Me4 fluorescence) in tetracycline-inducible KCNC1 TREX/CHO cells; format: cell-based; conditions: for response to KCl addition / depolarization with KCl (membrane potential dye fluorescence): induced KCNC1 CHO cells pre-incubated with BaCl2 30 mM at least 30 minutes; for depolarization (change in fluorescence intensity of the indicator dye) on addition of potassium chloride: KCl added in 50 mM steps, induced vs non-induced KCNC1 CHO cells, FIG. 4
T1 construct: The 2 kb KCNC1 gene fragment and the pcDNA4/Tob vector were gel purified, ligated; host or cells: T-REx CHO cells
T1 sequence (P15388 1-585 isoform P15388-3): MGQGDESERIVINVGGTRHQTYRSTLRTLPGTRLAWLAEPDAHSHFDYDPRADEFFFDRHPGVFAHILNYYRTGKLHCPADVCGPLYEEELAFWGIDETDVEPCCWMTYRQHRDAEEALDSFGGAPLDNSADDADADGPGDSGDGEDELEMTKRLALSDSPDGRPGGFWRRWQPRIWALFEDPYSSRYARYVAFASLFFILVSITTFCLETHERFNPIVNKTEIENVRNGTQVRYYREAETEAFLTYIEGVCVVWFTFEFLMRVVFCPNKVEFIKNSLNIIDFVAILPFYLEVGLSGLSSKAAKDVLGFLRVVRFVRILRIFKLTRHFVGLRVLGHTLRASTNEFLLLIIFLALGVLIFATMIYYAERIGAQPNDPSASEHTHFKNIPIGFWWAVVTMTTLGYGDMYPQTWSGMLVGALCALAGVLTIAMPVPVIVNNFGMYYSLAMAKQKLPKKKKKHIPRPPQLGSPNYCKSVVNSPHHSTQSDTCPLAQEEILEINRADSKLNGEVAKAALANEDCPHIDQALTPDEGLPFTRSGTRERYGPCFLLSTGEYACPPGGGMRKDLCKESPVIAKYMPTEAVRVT
Experimental: In this example, fluorescent dyes are used to assay for changes in membrane potential, essentially as described in Example 4.
A KCNC1 positive TREX/CHO clone was plated at 3×10^6 cells in replicate 10 cm tissue culture dishes. After 24 hours one dish was treated with 10 μg/mL deoxycycline to induce KCNC1 expression. After a 24 hour induction period, both induced and uninduced cells were harvested with trypsin, counted, and adjusted to equal cell densities in hybridoma media (Sigma, St. Louis, Mo.). A solution of 3.3×10^5 cells and 0.4 μM of each Disbac5Me4 and Disbac3Me4 in hybridoma media was stirred in a cuvette in a JY-Fluormax-2 fluorometer (JY, Edison N.J.). Fluorescence intensity from 540 nm excitation and 690 nm emission was measured over time. The extracellular potassium chloride level was adjusted to 50 mM, 10 mM, and 150 mM with 3 N KCl at the indicated times. Each cell population was tested in triplicate and the mean and standard error (SE) were determined.
4-aminopyridine is a known specific inhibitor of Kv3.1b (Grissmer et al., Molec. Pharmacol. 45:1227-1234, 1994; Kirsch and Drewe, Jour. Gen. Physiol. 102:797-816, 1993; Grissmer et al. Jour. Biol. Chem. 267:20971-20979, 1992), the human homologue of KCNC1. […] Pre-incubation with 30 mM KCl had no effect, ruling out the possibility that effects of BaCl2 resulted from simply changing the ionic strength of the extracellular medium (data not shown). Each cell population was tested in triplicate. The mean and SE are shown in the FIG. 5 (aminopyridine) and FIG. 6 (BaCl2).

[2] = molecular target: T2, HERG potassium ion channel (Homo sapiens, UniProt Q12809); assay: Membrane potential assay (Disbac5Me4/Disbac3Me4 fluorescence) in inducible HERG TREX/CHO clone 5J; format: cell-based; conditions: FIG. 8
T2 construct: expressed in transfected cells; host or cells: T-REx CHO cells, clone 5J
T2 sequence (Q12809 whole entry): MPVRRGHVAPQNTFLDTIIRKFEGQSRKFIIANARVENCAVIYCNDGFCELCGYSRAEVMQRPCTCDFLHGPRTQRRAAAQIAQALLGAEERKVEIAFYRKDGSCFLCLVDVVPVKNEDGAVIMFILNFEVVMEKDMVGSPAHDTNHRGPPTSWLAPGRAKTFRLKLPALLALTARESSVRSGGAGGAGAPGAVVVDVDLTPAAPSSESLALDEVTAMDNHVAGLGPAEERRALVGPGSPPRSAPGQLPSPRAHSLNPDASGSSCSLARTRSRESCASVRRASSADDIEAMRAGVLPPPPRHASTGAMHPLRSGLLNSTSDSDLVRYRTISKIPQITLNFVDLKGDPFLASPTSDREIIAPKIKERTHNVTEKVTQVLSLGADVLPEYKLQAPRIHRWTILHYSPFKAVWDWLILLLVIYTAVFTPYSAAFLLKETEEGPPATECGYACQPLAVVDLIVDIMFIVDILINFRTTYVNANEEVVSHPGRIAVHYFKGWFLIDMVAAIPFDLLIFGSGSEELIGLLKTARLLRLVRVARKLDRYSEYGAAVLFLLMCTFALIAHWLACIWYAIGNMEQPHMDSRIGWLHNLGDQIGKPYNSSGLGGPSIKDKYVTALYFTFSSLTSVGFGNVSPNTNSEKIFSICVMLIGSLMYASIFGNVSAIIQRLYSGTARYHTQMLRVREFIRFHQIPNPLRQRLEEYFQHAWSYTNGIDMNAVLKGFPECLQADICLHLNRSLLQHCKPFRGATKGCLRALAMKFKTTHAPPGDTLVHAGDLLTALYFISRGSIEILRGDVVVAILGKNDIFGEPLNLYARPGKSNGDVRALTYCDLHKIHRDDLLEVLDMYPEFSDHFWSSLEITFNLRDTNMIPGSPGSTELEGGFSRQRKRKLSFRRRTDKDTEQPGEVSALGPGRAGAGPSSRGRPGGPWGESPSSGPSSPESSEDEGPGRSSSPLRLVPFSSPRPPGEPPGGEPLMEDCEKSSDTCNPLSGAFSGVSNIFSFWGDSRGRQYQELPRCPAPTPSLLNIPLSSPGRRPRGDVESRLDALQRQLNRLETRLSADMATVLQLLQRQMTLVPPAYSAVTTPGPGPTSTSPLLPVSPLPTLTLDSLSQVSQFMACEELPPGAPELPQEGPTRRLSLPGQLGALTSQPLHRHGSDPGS
Experimental: The HERG positive TREX/CHO clone 5J was plated at 3×10^6 cells in replicate 10 cm tissue culture dishes. After 24 hours one dish was treated with […] doxycycline to induce HERG expression. After 24 hours induction, both induced and uninduced cells were harvested with trypsin, counted and adjusted to the same cell density in hybridoma media (Sigma). A solution of 1×10^5 cells/ml and 0.4 μM each Disbac5Me4 and Disbac3Me4 in hybridoma media was stirred in a cuvette in a JY-Spex fluorometer. Fluorescence intensity from 540 excitation and 690 emission was followed over time. The extracellular potassium chloride was adjusted to 100 mM with 3N KCl at the indicated time. 25 nM pimozide was then added at the indicated time.

Question: With `Nc1ccncc1` [4-aminopyridine] as the compound, how does the “response to KCl addition (membrane potential dye fluorescence)” value ([1]; induced KCNC1 CHO cells pre-incubated with 4-aminopyridine 900 μM at least 30 minutes, FIG. 5) read?
Answer: lessened the response to KCl addition

Question: What about the “characteristics of cells induced to overexpress KCNC1 compared with uninduced cells” value ([1]; pre-incubated with 4-aminopyridine (900 μM), FIG. 5) of the same compound?
Answer: show characteristics more similar to uninduced cells

Question: How did the resting potential ([1]; KCNC1 CHO cells pre-incubated with BaCl2 30 mM at least 30 minutes, FIG. 6) turn out when `[Ba+2].[Cl-].[Cl-]` [BaCl2] was run?
Answer: less polarized resting potential

Question: And the “response to KCl addition / depolarization with KCl (membrane potential dye fluorescence)” value ([1]; FIG. 6)?
Answer: ameliorated the response to KCl addition

Question: What about the “response to KCl addition / depolarization with KCl (membrane potential dye fluorescence)” value ([1]; FIG. 6, listed as BaCI2) of the same compound?
Answer: decreased response to depolarization with KCl

Question: What about the “characteristics of cells induced to overexpress KCNC1 compared with uninduced cells” value ([1]; pre-incubated with BaCl2 (30 mM), FIG. 6) of the same compound?
Answer: show characteristics more similar to uninduced cells

Question: What does the source list for `[Cl-].[K+]` [KCl, potassium chloride]?
Answer: depolarization on addition of potassium chloride ([2]; 100 mM KCl, induced HERG expressing vs uninduced cells): depolarizes the HERG expressing cells to a greater extent than the uninduced cells; depolarization (change in fluorescence intensity of the indicator dye) on addition of potassium chloride [1]: show a response; depolarization (change in fluorescence intensity of the indicator dye) on addition of potassium chloride ([1]; listed as potassium chloride): depolarization of the an induced population of cells in comparison to a non-induced cell population; effect of pre-incubation on membrane potential response (ionic strength control) ([1]; pre-incubation with 30 mM KCl, data not shown): no effect

Question: For `O=c1[nH]c2ccccc2n1C1CCN(CCCC(c2ccc(F)cc2)c2ccc(F)cc2)CC1` [pimozide], which “sensitivity of membrane potential to pimozide” value ([2]; 25 nM pimozide added after 100 mM KCl, induced vs uninduced cells) is on record?
Answer: more sensitive
